Data as given in US8192761B2, “Granular preparation containing biguanide compound” (Dainippon Sumitomo Pharma Co., Ltd., priority 2005, dated 2012).

Assay: Stability testing: appearance (solidification) of fine granules after storage in tightly sealed glass containers
Assay type: physicochemical
Conditions: additive added to metformin hydrochloride fine granules, 40° C.
Procedure: Using fine granules obtained in Examples 1-14 and Comparative Examples 1-16, a stability testing was performed. Fine granules (5 g) were each placed in glass containers, which were tightly sealed and stored at 40° C. for 1 week.
Appearance of metformin hydrochloride fine granules after storage at 40° C. for 1 week
With O=P([O-])([O-])O.[Ca+2] [anhydrous dibasic calcium phosphate] the solidification-preventive effect was “did not show a solidification-preventive effect”.
With calcium stearate the solidification-preventive effect was “did not show a solidification-preventive effect”.
In the case of OC[C@H]1O[C@@H](O[C@H]2[C@H](O)[C@@H](O)C(O)O[C@@H]2CO)[C@H](O)[C@@H](O)[C@H]1O (stereo partly drawn) [lactose], the solidification-preventive effect is reported as “did not show a solidification-preventive effect”.
For [Ca+2].[Cl-].[Cl-] [calcium chloride], the solidification-preventive effect was “a solidification-preventive effect was observed”.
With magnesium stearate the solidification-preventive effect was “a solidification-preventive effect was observed”.
In the case of O=C([O-])[O-].[Ca+2] [calcium carbonate], the solidification-preventive effect is reported as “did not show a solidification-preventive effect”.
